Where two headings read alike, the source gives them in different places.

The values that follow come from publication PMC9962964, “^68Ga-Labeled [Thz^14]Bombesin(7–14) Analogs: Promising GRPR-Targeting Agonist PET Tracers with Low Pancreas Uptake” (Molecules, 2023).

The conditions of series [1]: pH 7.4. The protocol: Briefly, aliquots (2 μL) of the ^68Ga-labeled peptides were added into a 15 mL falcon tube containing 3 mL of n-octanol and 3 mL of 0.1 mol/L DPBS (pH 7.4). The mixture was vortexed for 1 min and then centrifuged at 3000 rpm for 15 min. Samples of the n-octanol (1 mL) and buffer (1 mL) layers were collected and measured in a gamma counter. LogD7.4 was calculated using the following equation: LogD7.4 = log10 [(counts in the n-octanol phase)/(counts in the buffer phase)].

A further series relates to PC-3 tumor xenografts. The series is described as follows: PET/CT imaging of PC-3 tumor xenografts. It counts as in vivo, NRG mice. Conditions: 1 h post-injection. As to the method:
PET/CT imaging experiments were performed on a Siemens (Knoxville, TN) Inveon micro PET/CT scanner. The tumor-bearing mouse was injected with 3–5 MBq of ^68Ga-labeled tracer through a lateral caudal tail vein under anesthesia, followed by recovery and roaming freely in its cage during the uptake period. At 50 min post-injection, a 10 min CT scan was conducted first for the localization and attenuation correction after segmentation for reconstructing the PET images, followed by a 10 min static PET imaging acquisition.

The conditions of series [2]: 15 min post-injection. As to the method: PET/CT imaging, biodistribution, and in vivo stability studies were conducted on male NOD.Cg-Rag1^tm1Mom Il2rg^tm1Wjl/SzJ (NRG) mice, following previously published procedures. The experiments were conducted according to the guidelines established by the Canadian Council on Animal Care and approved by the Animal Ethics Committee of the University of British Columbia (protocol number A20-0113, approved on 30 September 2020). […] Mice were used for PET/CT imaging and biodistribution studies when the tumor grew to 5–8 mm in diameter over around 4 weeks.
At 15 min post-injection, mice were sedated and euthanized, and urine and blood were collected. The plasma was extracted from whole blood by adding CH3CN (500 μL), vortex, centrifugation, and the separation of supernatant. The plasma and urine samples were analyzed via radio-HPLC using the conditions for quality control of these ^68Ga-labeled radioligands (Table S3).

Series [3] can be described thus: Ex vivo biodistribution in PC-3 tumor-bearing mice. Also noted: species or system NRG mice. The note with it: mouse, 1 h post-injection; for tissue to tissue ratio at 1 h: male, NRG (NOD.Cg-Rag1^tm1Mom Il2rg^tm1Wjl/SzJ), iv, total radioactivity; for tissue uptake at 1 h: intravenous. The protocol:
For biodistribution studies, the mice were injected with the radiotracer (2–4 MBq) via the tail vein as described above. For blocking, the mice were co-injected with 100 μg of [D-Phe^6,Leu-NHEt^13,des-Met^14]Bombesin(6–14). At 1 h post-injection, the mice were anesthetized through isoflurane inhalation and euthanized through CO2 inhalation. Blood was collected through a cardiac puncture, and organs/tissues of interest were collected, weighed, and counted using a Perkin Elmer (Waltham, MA, USA) Wizard2 2480 automatic gamma counter.

Series [4] deals with T1, GRPR (Homo sapiens, UniProt P30550). Kind of series: Fluorometric calcium release assay in PC-3 cells. Format: cell-based. Also noted: generated using GRPR-expressing PC-3 cells; endogenous in cells; host or cells: PC-3 cells. The note with it: 50 nM ligand. As to the method: Following previously published procedures, 5 × 10^4 PC-3 cells in 100 μL of growth media were seeded per well in a 96-well, clear bottom black plate 24 h before the assay. The loading buffer (100 μL/well), containing a calcium-sensitive dye (FLIPR Calcium 6 assay kit), was added to the 96-well plate. After incubation at 37 °C for 2 h, the plate was placed in a FlexStation 3 microplate reader (Molecular Devices). […] Agonistic/antagonistic properties were determined using the relative fluorescent unit (RFU = max–min).

Series [5] has as its target T1, GRPR. Also noted: generated using GRPR-expressing PC-3 cells; endogenous in cells; method as in PMID 21552898, PMID 7809097. The note with it: Schally group; cited from earlier work.
Series [6] addresses T1, GRPR. The series is described as follows: In vitro competition binding assay with [125I-Tyr4]Bombesin on PC-3 cells. Also noted: generated using GRPR-expressing PC-3 cells; endogenous in cells; host or cells: PC-3 cells. The note with it: displacement of [125I-Tyr4]Bombesin, n = 3. As to the method: PC-3 cells were seeded in 24-well, poly-D-lysine plates at 2 × 10^5 cells/well 24–48 h prior to the assay. […] Then, the plates were incubated for about 60 min at 37 °C. […] Data were analyzed using nonlinear regression (one binding site model for competition assay) with GraphPad (San Diego, CA, USA) Prism 8.4.3 software.

T1 sequence (P30550 whole entry): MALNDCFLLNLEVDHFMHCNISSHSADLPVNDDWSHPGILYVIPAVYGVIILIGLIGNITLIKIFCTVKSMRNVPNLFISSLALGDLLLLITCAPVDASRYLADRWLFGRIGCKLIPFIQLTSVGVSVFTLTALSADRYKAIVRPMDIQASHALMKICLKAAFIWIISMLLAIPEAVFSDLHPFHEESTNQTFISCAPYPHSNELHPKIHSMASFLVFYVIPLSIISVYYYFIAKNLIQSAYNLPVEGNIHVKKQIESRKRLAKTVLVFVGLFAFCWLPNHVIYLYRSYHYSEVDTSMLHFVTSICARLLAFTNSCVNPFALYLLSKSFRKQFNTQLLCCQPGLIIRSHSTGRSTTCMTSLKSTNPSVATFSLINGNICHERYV

Consider `CC(C)C[C@H](NC(=O)[C@H](Cc1c[nH]cn1)NC(=O)CNC(=O)[C@@H](NC(=O)[C@H](C)NC(=O)[C@H](Cc1c[nH]c2ccccc12)NC(=O)[C@H](CCC(N)=O)NC(=O)[C@@H](Cc1ccc2ccccc2c1)NC(=O)CN1CCC(NC(=O)CN2CCN(CC(=O)O)CCN(CC(=O)O)CCN(CC(=O)O)CC2)CC1)C(C)C)C(=O)N1CSC[C@H]1C(N)=O` [[^68Ga]Ga-TacBOMB3, metal not drawn], for which, in series [1], the log distribution coefficient (logD) was -2.55 ± 0.03. Also, the “visualization of PC-3 tumor xenografts in PET images” value in the series with PC-3 tumor xenografts was “clearly visualized”. Moreover, the excretion pathway result with PC-3 tumor xenografts (PET images) is recorded as “primarily excreted via the renal pathway”. Further, in series [2] (mouse plasma, n = 3), the “intact fraction in plasma” value worked out at 27.3 ± 4.84%. In addition, in series [2] (mouse urine), the “intact tracer in urine” value was “no intact”. Further, the tissue to tissue ratio at 1 h was 29.9 ± 8.5 in series [3] (tumor and bone, n = 4, read-out: Tumor/bone uptake ratio); 4.93 ± 0.84 in series [3] (tumor and intestines, n = 4, read-out: Tumor/intestines uptake ratio); 1.34 ± 0.58 in series [3] (tumor and kidney, n = 4, read-out: Tumor/kidney uptake ratio); 23.5 ± 9.61 in series [3] (tumor and muscle, n = 4, read-out: Tumor/muscle uptake ratio); 2.21 ± 0.4 in series [3] (tumor and pancreas, n = 4, read-out: Tumor/pancreas uptake ratio); 5.61 ± 2.33 in series [3] (tumor and whole blood, n = 4, read-out: Tumor/blood uptake ratio). Besides, the tissue uptake at 1 h is 5.09 ± 0.54 %ID/g in series [3] (PC-3 tumor, n = 4, read-out: PC-3 tumor uptake); 1.06 ± 0.51 %ID/g in series [3] (blood, n = 4, read-out: Blood uptake); under 1 %ID/g in series [3] (brain, muscle, fat, bone, liver, stomach, heart, and spleen, read-out: Uptake values for the brain, muscle, fat, bone, liver, stomach, heart, and spleen); 0.19 ± 0.18 %ID/g in series [3] (fat, n = 4, read-out: Fat uptake); 0.35 ± 0.18 %ID/g in series [3] (heart, n = 4, read-out: Heart uptake); 1.06 ± 0.26 %ID/g in series [3] (intestines, n = 4, read-out: Intestines uptake). Moreover, the tissue uptake at 1 h in series [3] (kidneys, n = 4, read-out: Kidneys uptake) amounted to 4.61 ± 2.72 %ID/g; in series [3] (liver, n = 4, read-out: Liver uptake), 0.65 ± 0.19 %ID/g; in series [3] (lungs, n = 4, read-out: Lungs uptake), 1.63 ± 0.75 %ID/g; in series [3] (muscle, n = 4, read-out: Muscle uptake) it was 0.24 ± 0.12 %ID/g; in series [3] (pancreas, n = 4, read-out: Pancreas uptake), 2.41 ± 0.72 %ID/g; in series [3] (spleen, n = 4, read-out: Spleen uptake), 0.5 ± 0.32 %ID/g. Moreover, the tissue uptake at 1 h in series [3] (stomach, n = 4, read-out: Stomach uptake) came to 0.82 ± 0.37 %ID/g; in series [3] (testes, n = 4, read-out: Testes uptake), 0.37 ± 0.06 %ID/g.
On to `Nc1ncnc2c1ncn2[C@@H]1O[C@H](COP(=O)(O)OP(=O)(O)OP(=O)(O)O)[C@@H](O)[C@H]1O` [ATP, adenosine triphosphate], for which the “Ca2+ efflux (RFU = max–min)” value on GRPR [4] was 334 ± 39.0 RFUs.
Regarding “D-2-Nal-[Leu^13ψThz^14]Bombesin(7–14) [RC-3965-II]”, at GRPR [5], the “binding affinity to GRPR” value was “picomolar binding affinity”.
As to “[D-Phe^6,Leu-NHEt^13,des-Met^14]Bombesin(6–14)”, the “Ca2+ efflux (RFU = max–min)” value on GRPR [4] came out at 25.3 ± 1.92 RFUs.
“D-Phe-[Leu^13ψThz^14]Bombesin(7–14) [RC-3950-II]”: the “binding affinity to GRPR” value at GRPR [5] is on record as “picomolar binding affinity”.
Regarding bombesin, the “Ca2+ efflux (RFU = max–min)” value at GRPR [4] worked out at 754 ± 38.3 RFUs.
Compound “Ga-TacBOMB2: nonradioactive Ga-complexed standard of TacBOMB2 (FQWAVGHLX; Ga-DOTA-Pip (4-amino-(1-carboxymethyl)piperidine) on the N-terminus; residue 1 is D-Phe; X9 = Thz (thiazoline/thiazolidine-4-carboxylic acid, named thiazoline in the text) replacing Met14, normal Leu1)” came in with an inhibition constant (Ki) in the series with GRPR [6] of 7.62 ± 0.19 nM.
Regarding “D-Tpi-[Leu^13ψThz^14]Bombesin(7–14) [RC-3910-II]”, at GRPR [5], the “binding affinity to GRPR” value is recorded as “picomolar binding affinity”.
